Entries after “also recorded” stand apart in the source; their conditions may differ. Where a SMILES comes first, the peptide text is derived from it. The star is where a group is joined. Cbz = O=C(OCc1ccccc1)*
Key:
human RA myocytes = assay: Action potential duration (APD) and APD rate adaptation in isolated human right atrial myocytes; type: cell-based
Source text: All abbreviations are as defined in FIG. 1.
9b. […] Representative AP traces in RA myocytes from patients in SR exposed to 2 doses of 4-AP in the presence or absence of nNOS inhibition with SMTC.
A shorter APD leads to reduced atrial refractoriness and promote AF sustainability. […] These findings indicate that loss of myocardial nNOS signalling is sufficient to produce an atrial electrical substrate that increases both the inducibility and maintenance of AF.

nNOS protein [1] = assay: nNOS protein in human atrial tissue in AF after inhibition of the proteosomal system or autophagy; type: cell-based; details: human RA, MG132 5 μmol/L, bafilomycin 25 nmol/L
Method: In the presence of AF, ubiquitination of nNOS protein is increased in human atrial tissue as shown by immunoprecipitation. Protein load of AF samples was increased to match the nNOS content to that seen in SR; n=6 (a). […] All abbreviations are as defined in FIG. 1.
In the skeletal muscle, nNOS protein stability is determined by the enzyme's anchoring to the dystrophin-syntrophin complex. We found a reduction in dystrophin (FIG. 4c, 4d, 4f) and dystrophin-associated proteins (e.g., caveolin-3 and α1-syntrophin, 4c, 4e), and a disruption of the dystrophin-nNOS complex in AF (FIG. 4a, 4b). In humans, atrial nNOS and dystrophin were strongly correlated (FIG. 4g), in keeping with the notion that disruption of the dystrophin-syntrophin complex promotes ubiquitin-dependent nNOS degradation in AF.

nNOS mRNA [2] = assay: nNOS mRNA (gene expression) in transfected human atrial myocytes; type: cell-based
Source text: (§1) By contrast, treatment with miR31 mimic has no effect on the DYS mRNA in either SR (n=12) or AF (n=10). *P<0.05, **P<0.01 ***P<0.001 vs controls in SR and #P<0.05, ##P[…], ###P<0.001 vs negative control (NC) using 1-way ANOVA with Bonferroni correction. Dystrophin and nNOS gene expression were normalized to GAPDH.
(§2) 12g-m. […] By contrast, miR31 mimic has no effect on the decay of the DYS mRNA (h).

[3] = tested on: nNOS mRNA on the RISC complex; assay: Ribonucleoprotein immunoprecipitation with Ago2 (RISC), nNOS mRNA; type: cell-based, human; details: RA myocytes from AF patients; TSB 20 nM, 48-72 hours; normalized to miR31 in RISC
Method: 12a-b. (a) Immunoprecipitation of the RNA-induced silencing effector complex (RISC) protein, Argonaut 2 (Ago2) in RAA myocytes isolated from patients with AF transiently (48-72 hours) transfected with 20 nM of an locked nucleic acids (LNA)-based miR31 target site blocker (TSB, Exiqon) or with corresponding scrambled control (scr, 20 nM, Exiqon). Further details on the sequence of the TSB and scr control, also see FIG. 13). Molecular weight is shown in kilodalton (kDa); Rb IgG—rabbit immunoglobulin G (as negative control); IP—immunoprecipitation, IB—immunoblotting. (b) miR31 expression is unchanged in Ago2 immunoprecipitates from RAA human myocytes.
12c-f. (c) Sequence of the mature human miR31 (hsa-miR31), 23-nucleotide region of the human DYS-3′UTR, the miR31 hairpin inhibitor (anti-miR31, miRIDIAN, Dharmacon) and the 18-nucleotide-long locked nucleic acids (LNA)-based Target Site Blocker (TSB) covering the miR31-binding site on the DYS-3′UTR (TSB_DYS). (d) Sequences of the mature hsa-miR-31, 23-nucleotide region of the human nNOS-3′UTR, the anti-miR31 (miRIDIAN, Dharmacon) and the 18-nucleotide-long TSB covering the miR31-binding site on the nNOS 3′UTR (TSB_nNOS). The miR-31 seed sequence is in grey. […]
(§3) The corresponding mRNA stability was assessed in the presence of a miR-31 mimic (10 nM) in SR myocytes treated with the transcription inhibitor, actinomycin D (5 μg/ml).

nNOS protein [4] = assay: nNOS protein content (immunoblot) in transfected human atrial myocytes; type: cell-based
Source text: (§4) RQ—relative quantification, DYS—dystrophin; all other abbreviations are as defined in FIG. 1.
as §1, §2

dystrophin (DYS) protein = assay: Dystrophin protein content (immunoblot) in transfected human atrial myocytes; type: cell-based
DYS mRNA [5] = assay: DYS mRNA (gene expression) in transfected human atrial myocytes; type: cell-based; details: for DYS mRNA (expression): SR myocytes, mimic 10 nM, 72 hours (FIG. 10)
Source text: as §1, §2

DYS mRNA [6] = assay: DYS mRNA stability in the presence of actinomycin D; type: cell-based, human; details: SR myocytes; actinomycin D 5 μg/ml; mimic 10 nM; listed as miR31 mimic
Method: as §2, §3

human nNOS 3′UTR = assay: GFP reporter assay in HEK293 cells, nNOS 3′UTR constructs; type: cell-based; details: HEK293, co-transfected 48 hours, mimic 10 nM
Method: 11a. Predicted conserved (site 1) and poorly conserved (sites 2, 3, 4 and 5) miR31-5p binding sites on the human nNOS 3′UTR.
11b. HEK293 cells were co-transfected (48 hours) with reporter constructs containing 2 fragments (˜500 bp) of the nNOS 3′UTR region containing the mir31 binding putative sites (Part1, site 1 & 2 and Part2, sites 3, 4 & 5) and a miR31 mimic (10 nM, miRIDIAN, Dharmacon). […] Further analysis of Part 2, identified site 5 as the functional mir31 site on the nNOS 3′ UTR.

miR-31 = miR-31 expression in transfected isolated human atrial myocytes; type: cell-based; details: for miR31 levels: RAA myocytes; for miR-31 expression: 20 nM, 48-72 hours
Source text: as §4
8a. […] Data are expressed as fold change to the controls in SR.
as §1
We hypothesised that a microRNA-mediated translational repression of dystrophin in AF may account for the loss of myocardial nNOS and constitute a novel mechanism underlying AF-induced electrical remodelling.

DYS 3′UTR = assay: GFP reporter assay in HEK293 cells, DYS 3′UTR construct; type: cell-based, human; details: HEK293, co-transfected 48 hours
Method: 11c. HEK293 cells were co-transfected (48 hours) with reporter constructs containing the DYS 3′UTR region containing the mir31 binding putative site. […] Reporter assays were performed in triplicates and are representative of at least 3 independent experiments. ###P<0.001 vs vehicle, repeated-measure ANOVA with Bonferroni correction.

nNOS mRNA [7] = assay: nNOS mRNA stability in the presence of actinomycin D; type: cell-based, human; details: SR myocytes; actinomycin D 5 μg/ml; mimic 10 nM
Method: as §2, §3

[8] = myocytes from patients with AF, 20 nM, 48-72 hours
[9] = myocytes from patients with AF, 20 nM, 48-72 hours, listed as nNOS-TSB
[10] = SR myocytes, mimic 10 nM, 72 hours (FIG. 10), listed as miR31 mimic
[11] = SR myocytes, mimic 10 nM, 72 hours (FIG. 10), listed as miRIDIAN miR-31 mimic
[12] = SR myocytes, mimic 10 nM, 72 hours
[13] = myocytes from patients in SR, 20 nM, 48-72 hours

## Nc1ccncc1 [4-AP]
Human RA myocytes; RA myocytes from patients in SR, 2 doses of 4-AP (100 and 500)
  APD: prolong APD
Human RA myocytes; RA myocytes from patients in SR, 4-AP 100 and 500, with or without SMTC
  difference in APD induced by SMTC: abolish the difference in APD induced by SMTC
Human RA myocytes; human RA myocytes, 4-AP
  APD rate dependent adaptation: restores the APD rate dependent adaptation

## CC(C)C[C@@H](C=O)NC(=O)[C@H](CC(C)C)NC(=O)[C@H](CC(C)C)NC(=O)OCc1ccccc1 [MG132] (Cbz-Leu-Leu-Leu-aldehyde)
nNOS protein [1]
  nNOS protein content: partially restores nNOS protein; also recorded: partially restored nNOS content

## CO/C1=C\C(C)=C\[C@@H](C)[C@@H](O)[C@@H](C)C/C(C)=C/C=C/[C@H](OC)[C@@H]([C@@H](C)[C@@H](O)[C@H](C)[C@@]2(O)C[C@@H](O)[C@H](C)[C@@H](C(C)C)O2)OC1=O [bafilomycin A1]
nNOS protein [1]; listed as bafilomycin
  nNOS protein content: had no effect

## TSB_nNOS: 18-nucleotide-long TSB covering the miR31-binding site on the nNOS 3′UTR (LNA-based, Exiqon) (DNA TGGCAAGAATGAAAAGGC; LNA-based target site blocker, LNA pattern not given here)
nNOS mRNA [2]; [8]
  nNOS mRNA (gene expression): increased nNOS mRNA
nNOS mRNA [2]; [9]
  nNOS mRNA (gene expression): significantly increased
[3]
  loading of nNOS mRNA on the RISC complex (Ago2 immunoprecipitation): selectively prevented loading; also recorded: reduction
nNOS protein [4]; [8]
  nNOS protein content: partially recovered nNOS protein
nNOS protein [4]; [9]
  nNOS protein content: recovered nNOS
Dystrophin (DYS) protein; [8]
  dystrophin (DYS) protein content: without affecting
DYS mRNA [5]; [8]
  DYS mRNA: without affecting

## miR-31 mimic: miRIDIAN miR-31 mimic (Dharmacon) (AGGCAAGATGCTGGCATAGCT; listed as DNA, chemistry not given here)
DYS mRNA [6]
  decay of DYS mRNA: has no effect
nNOS mRNA [2]; AF myocytes, mimic (FIG. 10)
  nNOS gene expression: reduces
nNOS mRNA [2]; [10]
  nNOS mRNA (gene expression): reduces
nNOS mRNA [2]; [11]
  nNOS mRNA (gene expression): reduced
Human RA myocytes; [12]
  APD: shortened APD
  APD rate-dependent adaptation: abolished the APD rate-dependent adaptation
Human nNOS 3′UTR
  GFP fluorescence, wild type (WT) Part 2 nNOS 3′UTR construct: reduction in miR31-mediated GFP fluorescence
  reduction in GFP fluorescence, mutated (Mut) nNOS 3′UTR constructs lacking miR31 binding site: abolished
miR-31; AF, mimic (FIG. 10)
  miR31 levels: increases mir31 levels
miR-31; SR, mimic 10 nM, 72 hours (FIG. 10)
  miR31 levels: increases mir31 levels
miR-31; myocytes from patients in SR
  miR-31 expression: upregulation of miR-31
miR-31; myocytes from patients with AF
  miR-31 expression: upregulation of miR-31
nNOS protein [4]; AF myocytes, mimic (FIG. 10)
  nNOS protein: reduces
nNOS protein [4]; [10]
  nNOS protein content: reduces
nNOS protein [4]; [11]
  nNOS protein content: reduced
nNOS protein [4]; [13]
  nNOS protein content: dramatically reduced
nNOS protein [4]; [8]
  nNOS protein content: dramatically reduced
Dystrophin (DYS) protein; AF myocytes, mimic (FIG. 10)
  dystrophin protein: reduces
Dystrophin (DYS) protein; [10]
  dystrophin (DYS) protein content: reduces
Dystrophin (DYS) protein; [11]
  dystrophin (DYS) protein content: reduced
Dystrophin (DYS) protein; [13]
  dystrophin (DYS) protein content: dramatically reduced
Dystrophin (DYS) protein; [8]
  dystrophin (DYS) protein content: dramatically reduced
DYS mRNA [5]; AF myocytes, mimic (FIG. 10)
  DYS mRNA: has no effect
DYS mRNA [5]; listed as miR31 mimic
  DYS mRNA (expression): has no effect
DYS mRNA [5]; listed as miRIDIAN miR-31 mimic
  DYS mRNA (expression): without affecting
DYS 3′UTR
  GFP fluorescence, wild type (WT) DYS 3′UTR construct: reduction in miR31-mediated GFP fluorescence
  reduction in GFP fluorescence, mutated (Mut) DYS 3′UTR constructs lacking miR31 binding site: abolished
nNOS mRNA [7]
  decay of nNOS mRNA: accelerated the decay of nNOS mRNA

— US20160108431A1, “PREVENTION AND TREATMENT OF ATRIAL FIBRILLATION” (ISIS INNOVATION LIMITED, priority 2013, published 2016)
